Assay results from patent US20140221361A1, “C-19 MODIFIED TRITERPENOIDS WITH HIV MATURATION INHIBITORY ACTIVITY” (priority 2013, published 2014).

tested on: recombinant NL4-3 virus (Renilla luciferase in nef, Gag P373S); test: HIV cell culture assay (luciferase reporter, MT-2 cells); type: cell-based, HIV-1; conditions: Renilla, NL43, MT-2 cells infected for 4-5 days with NLRluc recombinants; luciferase activity; serial dilutions of inhibitor
Summary of the method: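 MT-2 cells infected with recombinant NL4-3 carrying Renilla luciferase in place of part of nef and Gag P373S, virus made by 293T transfection. Infection ran 4-5 days with serial inhibitor dilutions. Antiviral activity read as luciferase activity (Dual Luciferase reagents mixed with lysis buffer).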

Structure (SMILES)	EC50 [nM]
CNC(=O)[C@@H]1CC[C@]2(NCCN3CCS(=O)(=O)CC3)CC[C@]3(C)[C@H](CC[C@@H]4[C@@]5(C)CC=C(c6ccc(C(=O)O)cc6)C(C)(C)[C@@H]5CC[C@]43C)[C@@H]12 [Example B28, 4-((1R,3aS,5aR,5bR,7aR,11aS,11bR,13aR,13bS)-3a-((2-(1,1-dioxidothiomorpholino)ethyl)amino)-5a,5b,8,8,11a-pentamethyl-1-(methylcarbamoyl)-2,3,3a,4,5,5a,5b,6,7,7a,8,11,11a,11b,12,13,13a,13b-octadecahydro-1H-cyclopenta[a]chrysen-9-yl)benzoic acid]	110
CNC(=O)N[C@@H]1CC[C@]2(NCCN3CCS(=O)(=O)CC3)CC[C@]3(C)[C@H](CC[C@@H]4[C@@]5(C)CC=C(c6ccc(C(=O)O)cc6)C(C)(C)[C@@H]5CC[C@]43C)[C@@H]12 [Example B29, 4-((1R,3aR,5aR,5bR,7aR,11aS,11bR,13aR,13bS)-3a-((2-(1,1-dioxidothiomorpholino)ethyl)amino)-5a,5b,8,8,11a-pentamethyl-1-(3-methylureido)-2,3,3a,4,5,5a,5b,6,7,7a,8,11,11a,11b,12,13,13a,13b-octadecahydro-1H-cyclopenta[a]chrysen-9-yl)benzoic acid]	30
CC1(C)C(c2ccc(C(=O)O)cc2)=CC[C@]2(C)[C@H]3CC[C@@H]4[C@H]5[C@H](NC(=O)N6CCCC6)CC[C@]5(NCCN5CCS(=O)(=O)CC5)CC[C@@]4(C)[C@]3(C)CC[C@@H]12 [Example B30, 4-((1R,3aR,5aR,5bR,7aR,11aS,11bR,13aR,13bS)-3a-((2-(1,1-dioxidothiomorpholino)ethyl)amino)-5a,5b,8,8,11a-pentamethyl-1-(pyrrolidine-1-carboxamido)-2,3,3a,4,5,5a,5b,6,7,7a,8,11,11a,11b,12,13,13a,13b-octadecahydro-1H-cyclopenta[a]chrysen-9-yl)benzoic acid]	2.96
CC1(C)C(c2ccc(C(=O)O)cc2)=CC[C@]2(C)[C@H]3CC[C@@H]4[C@H]5[C@H](c6nnco6)CC[C@]5(NCCN5CCS(=O)(=O)CC5)CC[C@@]4(C)[C@]3(C)CC[C@@H]12 [Example B31, 4-((1R,3aS,5aR,5bR,7aR,11aS,11bR,13aR,13bS)-3a-((2-(1,1-dioxidothiomorpholino)ethyl)amino)-5a,5b,8,8,11a-pentamethyl-1-(1,3,4-oxadiazol-2-yl)-2,3,3a,4,5,5a,5b,6,7,7a,8,11,11a,11b,12,13,13a,13b-octadecahydro-1H-cyclopenta[a]chrysen-9-yl)benzoic acid]	30
CC([C@@H]1CC[C@]2(NCCN3CCS(=O)(=O)CC3)CC[C@]3(C)[C@H](CC[C@@H]4[C@@]5(C)CC=C(c6ccc(C(=O)O)cc6)C(C)(C)[C@@H]5CC[C@]43C)[C@@H]12)N1CCCC1=O (stereo partly drawn) [Example B32, 4-((1R,3aS,5aR,5bR,7aR,11aS,11bR,13aR,13bS)-3a-((2-(1,1-dioxidothiomorpholino)ethyl)amino)-5a,5b,8,8,11a-pentamethyl-1-(1-(2-oxopyrrolidin-1-yl)ethyl)-2,3,3a,4,5,5a,5b,6,7,7a,8,11,11a,11b,12,13,13a,13b-octadecahydro-1H-cyclopenta[a]chrysen-9-yl)benzoic acid]	2.84
CC1(C)C(c2ccc(C(=O)O)cc2)=CC[C@]2(C)[C@H]3CC[C@@H]4[C@H]5[C@H](N)CC[C@]5(NCCN5CCS(=O)(=O)CC5)CC[C@@]4(C)[C@]3(C)CC[C@@H]12 [Example B33, 4-((1R,3aR,5aR,5bR,7aR,11aS,11bR,13aR,13bS)-1-amino-3a-((2-(1,1-dioxidothiomorpholino)ethyl)amino)-5a,5b,8,8,11a-pentamethyl-2,3,3a,4,5,5a,5b,6,7,7a,8,11,11a,11b,12,13,13a,13b-octadecahydro-1H-cyclopenta[a]chrysen-9-yl)benzoic acid]	130
COCCS(=O)(=O)CCN(C)CCN[C@]12CC[C@@H](N(C)C)[C@@H]1[C@H]1CC[C@@H]3[C@@]4(C)CC=C(c5ccc(C(=O)O)cc5)C(C)(C)[C@@H]4CC[C@@]3(C)[C@]1(C)CC2 [Example B34]	20
CNC(C)[C@@H]1CC[C@]2(NCCN3CCS(=O)(=O)CC3)CC[C@]3(C)[C@H](CC[C@@H]4[C@@]5(C)CC=C(c6ccc(C(=O)O)cc6)C(C)(C)[C@@H]5CC[C@]43C)[C@@H]12 (stereo partly drawn) [Example B35, 4-((1R,3aS,5aR,5bR,7aR,11aS,11bR,13aR,13bS)-3a-((2-(1,1-dioxidothiomorpholino)ethyl)amino)-5a,5b,8,8,11a-pentamethyl-1-(1-(methylamino)ethyl)-2,3,3a,4,5,5a,5b,6,7,7a,8,11,11a,11b,12,13,13a,13b-octadecahydro-1H-cyclopenta[a]chrysen-9-yl)benzoic acid]	4.24
CC(=O)N[C@@H]1CC[C@]2(NCCN3CCS(=O)(=O)CC3)CC[C@]3(C)[C@H](CC[C@@H]4[C@@]5(C)CC=C(c6ccc(C(=O)O)cc6)C(C)(C)[C@@H]5CC[C@]43C)[C@@H]12 [Example B36, 4-((1R,3aR,5aR,5bR,7aR,11aS,11bR,13aR,13bS)-1-acetamido-3a-((2-(1,1-dioxidothiomorpholino)ethyl)amino)-5a,5b,8,8,11a-pentamethyl-2,3,3a,4,5,5a,5b,6,7,7a,8,11,11a,11b,12,13,13a,13b-octadecahydro-1H-cyclopenta[a]chrysen-9-yl)benzoic acid]	6.29
CN[C@@H]1CC[C@]2(NCCN3CCS(=O)(=O)CC3)CC[C@]3(C)[C@H](CC[C@@H]4[C@@]5(C)CC=C(c6ccc(C(=O)O)cc6)C(C)(C)[C@@H]5CC[C@]43C)[C@@H]12 [Example B37, 4-((1R,3aR,5aR,5bR,7aR,11aS,11bR,13aR,13bS)-3a-((2-(1,1-dioxidothiomorpholino)ethyl)amino)-5a,5b,8,8,11a-pentamethyl-1-(methylamino)-2,3,3a,4,5,5a,5b,6,7,7a,8,11,11a,11b,12,13,13a,13b-octadecahydro-1H-cyclopenta[a]chrysen-9-yl)benzoic acid]	40
CN(C)[C@@H]1CC[C@]2(NCCN3CCS(=O)(=O)CC3)CC[C@]3(C)[C@H](CC[C@@H]4[C@@]5(C)CC=C(c6ccc(C(=O)O)cc6)C(C)(C)[C@@H]5CC[C@]43C)[C@@H]12 [Example B38, 4-((1R,3aR,5aR,5bR,7aR,11aS,11bR,13aR,13bS)-1-(dimethylamino)-3a-((2-(1,1-dioxidothiomorpholino)ethyl)amino)-5a,5b,8,8,11a-pentamethyl-2,3,3a,4,5,5a,5b,6,7,7a,8,11,11a,11b,12,13,13a,13b-octadecahydro-1H-cyclopenta[a]chrysen-9-yl)benzoic acid]	10
CC1(C)C(c2ccc(C(=O)O)cc2)=CC[C@]2(C)[C@H]3CC[C@@H]4[C@H]5[C@H](CO)CC[C@]5(NCCN5CCS(=O)(=O)CC5)CC[C@@]4(C)[C@]3(C)CC[C@@H]12 [Example B42, 4-((1R,3aS,5aR,5bR,7aR,11aS,11bR,13aR,13bS)-3a-((2-(1,1-dioxidothiomorpholino)ethyl)amino)-1-(hydroxymethyl)-5a,5b,8,8,11a-pentamethyl-2,3,3a,4,5,5a,5b,6,7,7a,8,11,11a,11b,12,13,13a,13b-octadecahydro-1H-cyclopenta[a]chrysen-9-yl)benzoic acid]	40
CC1(C)C(c2ccc(C(=O)O)cc2)=CC[C@]2(C)[C@H]3CC[C@@H]4[C@H]5[C@H](NC(=O)C(F)(F)F)CC[C@]5(NCCN5CCS(=O)(=O)CC5)CC[C@@]4(C)[C@]3(C)CC[C@@H]12 [Example B43, 4-((1R,3aR,5aR,5bR,7aR,11aS,11bR,13aR,13bS)-3a-((2-(1,1-dioxidothiomorpholino)ethyl)amino)-5a,5b,8,8,11a-pentamethyl-1-(2,2,2-trifluoroacetamido)-2,3,3a,4,5,5a,5b,6,7,7a,8,11,11a,11b,12,13,13a,13b-octadecahydro-1H-cyclopenta[a]chrysen-9-yl)benzoic acid]	2.12
CN(C(=O)C(F)(F)F)[C@@H]1CC[C@]2(NCCN3CCS(=O)(=O)CC3)CC[C@]3(C)[C@H](CC[C@@H]4[C@@]5(C)CC=C(c6ccc(C(=O)O)cc6)C(C)(C)[C@@H]5CC[C@]43C)[C@@H]12 [Example B44, 4-((1R,3aR,5aR,5bR,7aR,11aS,11bR,13aR,13bS)-3a-((2-(1,1-dioxidothiomorpholino)ethyl)amino)-5a,5b,8,8,11a-pentamethyl-1-(2,2,2-trifluoro-N-methylacetamido)-2,3,3a,4,5,5a,5b,6,7,7a,8,11,11a,11b,12,13,13a,13b-octadecahydro-1H-cyclopenta[a]chrysen-9-yl)benzoic acid]	5.92
CC1(C)C(c2ccc(C(=O)O)cc2)=CC[C@]2(C)[C@H]3CC[C@@H]4[C@H]5[C@H](NC(=O)c6ccc(C7(C(F)(F)F)N=N7)cc6)CC[C@]5(NCCN5CCS(=O)(=O)CC5)CC[C@@]4(C)[C@]3(C)CC[C@@H]12 [Example B45, 4-((1R,3aR,5aR,5bR,7aR,11aS,11bR,13aR,13bS)-3a-((2-(1,1-dioxidothiomorpholino)ethyl)amino)-5a,5b,8,8,11a-pentamethyl-1-(4-(3-(trifluoromethyl)-3H-diazirin-3-yl)benzamido)-2,3,3a,4,5,5a,5b,6,7,7a,8,11,11a,11b,12,13,13a,13b-octadecahydro-1H-cyclopenta[a]chrysen-9-yl)benzoic acid]	50
CC(=O)[C@@H]1CC[C@]2(N)CC[C@]3(C)[C@H](CC[C@@H]4[C@@]5(C)CC=C(c6ccc(C(=O)O)cc6)C(C)(C)[C@@H]5CC[C@]43C)[C@@H]12 [Example B46, 4-((1R,3aS,5aR,5bR,7aR,11aS,11bR,13aR,13bS)-1-acetyl-3a-amino-5a,5b,8,8,11a-pentamethyl-2,3,3a,4,5,5a,5b,6,7,7a,8,11,11a,11b,12,13,13a,13b-octadecahydro-1H-cyclopenta[a]chrysen-9-yl)benzoic acid]	290
